# Data published in article PMC4193777 (PLoS ONE, 2014).
# Where a SMILES comes first, the peptide text is derived from it. Where no end group is shown, it is not given here. The star is where a group is joined. Palmitoyl = CCCCCCCCCCCCCCCC(=O)*
# T1: FPR2 (Homo sapiens, UniProt P25090)
# T1 construct: Human peripheral blood neutrophils were isolated from buffy coats from healthy blood donors; endogenous in cells; host or cells: primary human peripheral blood neutrophils from buffy coats of healthy donors
# T1 sequence (P25090 1-351): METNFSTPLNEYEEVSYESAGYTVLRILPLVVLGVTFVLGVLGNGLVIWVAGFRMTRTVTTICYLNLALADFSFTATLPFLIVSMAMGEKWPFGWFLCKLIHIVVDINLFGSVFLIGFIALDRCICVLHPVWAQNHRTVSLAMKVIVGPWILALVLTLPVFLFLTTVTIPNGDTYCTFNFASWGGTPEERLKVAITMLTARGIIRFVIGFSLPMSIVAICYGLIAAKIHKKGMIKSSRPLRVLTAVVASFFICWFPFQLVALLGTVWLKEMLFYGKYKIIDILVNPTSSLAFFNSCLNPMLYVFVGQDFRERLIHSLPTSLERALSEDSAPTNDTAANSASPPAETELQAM
# T2: formyl peptide receptor 2 (FPR2) (human (endogenous in neutrophils), UniProt P25090 1-351)
# T2 sequence (looked up): T1 sequence (P25090 1-351)
# B1: F2Pal10 pepducin (peptide)
# peptide: Palmitoyl-KIHKKGMIKS
# How the values were obtained:
# [1] = test system: neutrophils; assay: Priming of FPR2 agonist-induced superoxide response; format: cell-based, human; conditions: for priming effect on F2Pal10-induced superoxide / priming effect on WKYMVM-induced superoxide: versus non-primed cells, n = 3; for priming effect on WKYMVM-induced superoxide: WKYMVM 50 nM
# Method: (§1) Human peripheral blood neutrophils were isolated from buffy coats from healthy blood donors using dextran sedimentation and Ficoll-Paque gradient centrifugation as described. The remaining erythrocytes were disrupted by hypotonic lysis, the neutrophils were washed twice, resuspended in KRG, and stored on melting ice until use. This isolation procedure permits cells to be purified with minimal granule mobilization.
# (§2) The NADPH-oxidase activity was determined using isoluminol-enhanced chemiluminescence (CL), [27]. The CL activity was measured in a six-channel Biolumat LB 9505 (Berthold Co., Wildbad, Germany), using disposable 4-ml polypropylene tubes with a 900 µl reaction mixture containing 10^5 cells, isoluminol (2×10^−5 M) and HRP (2 U). The tubes were equilibrated in the Biolumat for 5 min at 37°C, after which the stimulus (100 µl) was added and the light emission was recorded continuously. Receptor desensitized cells were defined as naïve (non-desensitized) cells that had first been stimulated with a receptor specific agonist and returned to baseline after the resulting release of superoxide before a second stimulation. When reactivation experiments were performed with antagonists, the antagonists were added to the CL reaction mixture 1 min before the second stimulation. For studies with signaling inhibitors, cells were incubated with inhibitors at 37°C for 15 min before agonist addition. Control cells received no treatment but were incubated under the same conditions.
# A. A representative experiment of an F2Pal10 induced response in control (solid line) and latrunculin A treated neutrophils (dashed line) is shown. The time point for addition of F2Pal10 is indicated by an arrow. Abscissa: Time of study (min); ordinate: Superoxide production (Mcpm). […] A non-priming cut-off line (fold increase = 1) is included as a horizontal broken line in the figure.
# [2] = target: T1, FPR2; assay: Inhibition of F2Pal10-induced superoxide release by receptor inhibitors/antagonists; format: cell-based; conditions: F2Pal10 500 nM; PBP10 1 µM, cyclosporin H 1 µM; representative of more than five
# Method: as §1
# (§3) The NADPH-oxidase activity was determined using isoluminol-enhanced chemiluminescence (CL), [27]. The CL activity was measured in a six-channel Biolumat LB 9505 (Berthold Co., Wildbad, Germany), using disposable 4-ml polypropylene tubes with a 900 µl reaction mixture containing 10^5 cells, isoluminol (2×10^−5 M) and HRP (2 U). The tubes were equilibrated in the Biolumat for 5 min at 37°C, after which the stimulus (100 µl) was added and the light emission was recorded continuously. […]
# Figure 1 The F2Pal10 pepducin specifically activates FPR2. A. Primary human neutrophils were activated by F2Pal10 (500 nM) in the absence (solid line) or presence of the receptor specific inhibitor PBP10 (FPR2 specific inhibitor; 1 µM final concentration, dashed line) or the FPR1 antagonist cyclosporin H (CysH; 1 µM final concentration, dotted line) and the release of superoxide anions was recorded continuously. […] The release of superoxide anions was recorded continuously. […]
# [3] = test system: neutrophils; assay: Inhibition of FPR2 agonist-induced superoxide by pertussis toxin or kinase inhibitors; format: cell-based, human; conditions: for inhibition of F2Pal10- and WKYMVM-induced superoxide by kinase inhibitor: inhibitors 20 nM to 1 µM (1 µM shown), 15 min at 37°C, n = 3
# Method: as §1, §2
# A. Primary human neutrophils were treated with pertussis toxin (PTX, 500 ng/ml final concentration) and samples were withdrawn at indicated time points. […] As a control, the PMA response (5×10^−8 M final concentration) from control cells (120 min incubation without PTX, solid line in the inset) or treated with PTX for 120 min (dashed line in the inset) is shown. Superoxide production (peak values) from pertussis toxin treated neutrophils was compared to that from non-treated control cells. A representative experiment out of more than five is shown. B and C. Fluo-3-AM/FuraRED labeled neutrophils were incubated without any additive (solid lines) or with EGTA (2 mM; dotted lines). […] Traces of representative calcium responses are shown and at least three experiments have been performed. Abscissa, time of study (sec); ordinate, fluorescence (arbitrary unit). D. Primary human neutrophils were incubated with different pharmacological kinase inhibitors (1 µM final concentration) for 15 min at 37°C. Control cells were incubated at the same condition but received no inhibitors. […] Data are presented as % inhibition compared to the control response (peak values of superoxide production were used, mean±SEM, n = 3).
# The effects of these inhibitors were determined using different concentrations ranging from 20 nM to 1 µM.
# [4] = test system: desensitized FPR2; assay: PAF-induced cross-talk reactivation of desensitized FPR2 (superoxide); format: cell-based, human; conditions: PAF 100 nM; for inhibition of PAF response in FPR2-desensitized neutrophils: inhibitor before PAF, calyculin A 60 nM 10 min at 37°C, PBP10 1 µM, WEB2086 data not shown
# Method: as §1, §2
# Figure 3 PAF- or ATP-stimulation induces reactivation of desensitized FPR2. […] A representative experiment is shown and the time point for addition of FPR2 agonists is indicated by the first arrow, the time point for PAF stimulation (100 nM final concentration) with the second arrow. The control PAF response induced in naïve (non-desensitized) neutrophils is shown for comparison (dotted line). Abscissa: Time of study (min); ordinate: Superoxide production (Mcpm). B. Naïve neutrophils were first desensitized with F2Pal10 (F2Pal10des., 500 nM final concentration) and subsequently stimulated with PAF (100 nM final concentration; time point for PAF addition is indicated by an arrow). The FPR2 specific inhibitor PBP10 (1 µM) was added 1 min prior to PAF stimulation (dashed line) and the release of superoxide anions was recorded continuously. The PAF responses induced in naïve cells (solid line), as well as in F2Pal10-desensitized cells receiving no PBP10 (dotted line), are shown for comparison. Abscissa: Time of study (min); ordinate: Superoxide production (Mcpm). C. Effect of calyculin A on receptor cross-talk induced FPR2 reactivation. Cells desensitized with F2Pal10 (F2Pal10des.) were incubated with the phosphatase inhibitor calyculin A (60 nM; solid line) or buffer as control (dashed line) for 10 min at 37°C prior to PAF stimulation (100 nM). The release of superoxide anions was recorded continuously. Abscissa: Time of study (min); ordinate: Superoxide production (Mcpm). […] Abscissa: Time of study (min); ordinate: Superoxide production (Mcpm). […] The results are given as peak values of superoxide production following addition of ATPγS (mean+SEM; n = 3).
# Figure 4 More pronounced reactivation was induced by PAF in neutrophils desensitized by the pepducin F2Pal10. […] The results are given as peak values of superoxide production from three separate experiments for the first stimulation with FPR2 agonists (mean+SEM, n = 3). […]
# [5] = test system: desensitized FPR2; assay: ATP/ATPγS-induced cross-talk reactivation of desensitized FPR2 (superoxide); format: cell-based, human; conditions: desensitized by WKYMVM (40 nM) or F2Pal10 (500 nM); ATPγS 50 µM
# Method: as §1, §3
# Figure 3 PAF- or ATP-stimulation induces reactivation of desensitized FPR2. […] The FPR2 specific inhibitor PBP10 (1 µM) was added 1 min prior to PAF stimulation (dashed line) and the release of superoxide anions was recorded continuously. […] The release of superoxide anions was recorded continuously. […]
# [6] = test system: P2Y2R; assay: Direct NADPH-oxidase activation in naive neutrophils by P2Y2R agonists; format: cell-based, human
# Method: as §1
# as §2, with “For studies with signaling inhibitors, cells were incubated with inhibitors at 37°C for 15 min before agonist addition. Control cells received no treatment but were incubated under the same conditions.” left out
# [7] = target: T1, FPR2; assay: Neutrophil NADPH-oxidase activity (superoxide release), direct activation of naive cells; format: cell-based; conditions: read-out: maximum response relative to WKYMVM, superoxide peak, naive human neutrophils; % of response induced by WKYMVM
# Method: as §1, §2
# Data analysis was performed using GraphPad Prism 6.0 (Graphpad Software, San Diego, CA, USA).
# Representative experiments out of more than five are shown and an arrow indicates the time point for agonist addition. Abscissa: Time of study (min); ordinate: Superoxide production (Mcpm).
# [8] = target: T2, formyl peptide receptor 2 (FPR2); assay: cell-based or functional assay
molecule,measurement,setting,value
TNFα,priming effect on F2Pal10-induced superoxide,[1]; F2Pal10 500 nM,Very similar priming effects
same,priming effect on WKYMVM-induced superoxide,[1],significantly more superoxide than non-primed control cells
cyclosporin H,inhibition of F2Pal10-induced superoxide response,[2],not affected
C[S+]([O-])c1ccc(-c2nc(-c3ccncc3)c(-c3ccc(F)cc3)[nH]2)cc1 (stereo not shown) [SB203580],inhibition of F2Pal10- and WKYMVM-induced superoxide by kinase inhibitor,"[3]; WKYMVM 50 nM, F2Pal10 500 nM",Very similar degrees of inhibition
C/C1=C/C(=O)O[C@@H]2C[C@@H](CC[C@H](C)/C=C\C=C\CC1)O[C@@](O)([C@@H]1CSC(=O)N1)C2 [latrunculin A],effect on neutrophil response to F2Pal10,"[1]; F2Pal10 500 nM, latrunculin A treated",dramatically increased and prolonged
O=c1c(-c2ccc(O)cc2)coc2cc(O)cc(O)c12 [Genistein],inhibition of F2Pal10- and WKYMVM-induced superoxide by kinase inhibitor,"[3]; WKYMVM 50 nM, F2Pal10 500 nM",Very similar degrees of inhibition
platelet activating factor [PAF],reactivation of desensitized FPR2 by PAF,[4]; FPR2-desensitized neutrophils,reactivates desensitized FPR2 to an actively signaling state
CCCCCCCCCCCCCC(=O)O[C@@H]1[C@@H](C)[C@@]2(O)[C@@H](C=C(CO)C[C@]3(O)C(=O)C(C)=C[C@@H]23)[C@@H]2C(C)(C)[C@]12OC(C)=O [PMA],PMA responsiveness of pertussis toxin treated cells,"[3]; PMA 5×10^−8 M, PTX 120 min",retained their responsiveness to PMA
Cc1nnc2n1-c1sc(CCC(=O)N3CCOCC3)cc1C(c1ccccc1Cl)=NC2 [WEB2086],inhibition of PAF response in FPR2-desensitized neutrophils,[4],inhibited
Nc1ncnc2c1ncn2[C@@H]1O[C@H](CO[P@](=O)(O)O[P@](=O)(O)O[P@@](=O)(O)S)[C@@H](O)[C@H]1O [ATPγS],superoxide release in FPR2-desensitized cells by P2Y2R agonist,[5],induced a release of superoxide anions in FPR2 desensitized cells
same,direct activation of NADPH-oxidase in naive neutrophils,[6],can not directly activate the NADPH-oxidase in naïve neutrophils
Nc1ncnc2c1ncn2[C@@H]1O[C@H](COP(=O)(O)OP(=O)(O)OP(=O)(O)O)[C@@H](O)[C@H]1O [ATP],superoxide release in FPR2-desensitized cells by P2Y2R agonist,[5],induced a release of superoxide anions in FPR2 desensitized cells
same,direct activation of NADPH-oxidase in naive neutrophils,[6],can not directly activate the NADPH-oxidase in naïve neutrophils
CCCCCCCCCCCCCCCC(=O)N[C@@H](CCCCN)C(=O)N[C@H](C(=O)N[C@@H](Cc1c[nH]cn1)C(=O)N[C@@H](CCCCN)C(=O)N[C@@H](CCCCN)C(=O)NCC(=O)N[C@@H](CCSC)C(=O)N[C@H](C(=O)N[C@@H](CCCCN)C(=O)N[C@@H](CO)C(=O)O)[C@@H](C)CC)[C@@H](C)CC [F2Pal10] (Palmitoyl-KIHKKGMIKS-OH),Emax,[7],70%
CC(C)(C)n1nc(-c2ccc(Cl)cc2)c2c(N)ncnc21 [PP2],inhibition of F2Pal10- and WKYMVM-induced superoxide by kinase inhibitor,"[3]; WKYMVM 50 nM, F2Pal10 500 nM",Very similar degrees of inhibition
COC[C@H]1OC(=O)c2coc3c2[C@@]1(C)C1=C(C3=O)[C@@H]2CCC(=O)[C@@]2(C)C[C@H]1OC(C)=O [Wortmannin],inhibition of F2Pal10- and WKYMVM-induced superoxide by kinase inhibitor,"[3]; WKYMVM 50 nM, F2Pal10 500 nM",Very similar degrees of inhibition
pertussis toxin,inhibition of F2Pal10- and WKYMVM-induced oxidase response by pertussis toxin,"[3]; PTX 500 ng/ml, 90 and 120 min, WKYMVM 50 nM, F2Pal10 500 nM",largely inhibited
COC[C@@H]([C@H](O)[C@H](O)C(=O)NCC[C@H](C)c1nc(/C=C/C[C@@H]2O[C@]3(C[C@@H](O)[C@@H]2C)O[C@H]([C@H](C[C@H](O)[C@H](C)[C@H](O)[C@H](C)/C=C(C)/C(C)=C/C=C/C(C)=C\C#N)OC)[C@H](OP(=O)(O)O)C3(C)C)co1)N(C)C [calyculin A],priming effect on F2Pal10-induced superoxide,[1]; F2Pal10 500 nM,Very similar priming effects
same,priming effect on WKYMVM-induced superoxide,[1],significantly more superoxide than non-primed control cells
same,inhibition of PAF response in FPR2-desensitized neutrophils,[4],inhibited
B1,"maximum superoxide response of human neutrophils, relative to that induced by WKYMVM",[8],70%
same,"superoxide release (NADPH-oxidase activity, isoluminol chemiluminescence) from human neutrophils, F2Pal10 50-2000 nM, EC50",[8],~300 nM
